The values below come from the NIST ThermoML archive (doi:10.1016/j.fluid.2006.01.026).

For this series the following is noted: 101.33 kPa, Liquid; for viscosity: Capillary tube (Ostwald / Ubbelohde) method; for mass density: Vibrating tube method.

Structures are written as SMILES. ± gives the expanded uncertainty stated by the source.

With `CCCCCCCCCCCCCC[P+](CCCC)(CCCC)CCCC.O=S(=O)([O-])C(F)(F)C(F)C(F)(F)F`, the viscosity (283.15 K) was 2512 ± 300 mPa·s; the viscosity (293.15 K) was determined as 1103 ± 120 mPa·s; the viscosity (303.15 K) was determined as 539 ± 58 mPa·s; the viscosity (313.15 K) is 289 ± 30 mPa·s; the viscosity (323.15 K) stood at 167 ± 17 mPa·s; the viscosity (333.15 K) worked out at 103 ± 10 mPa·s. The viscosity runs as follows: (343.15 K) 66.6 ± 6.7 mPa·s; (353.15 K) 45 ± 4.5 mPa·s; (363.15 K) 31.5 ± 3.2 mPa·s; (373.15 K) 22.6 ± 2.3 mPa·s. For the same compound, the mass density runs as follows: (283.15 K) 1082 ± 2 kg/m3; (298.15 K) 1070 ± 2 kg/m3; (323.15 K) 1052 ± 2 kg/m3; (348.15 K) 1034 ± 2 kg/m3.
In the case of `CCCC[n+]1ccn(C)c1.O=S(=O)([O-])C(F)(F)C(F)C(F)(F)F` (stereo not drawn), the viscosity runs as follows: (283.15 K) 853 ± 94 mPa·s; (293.15 K) 378 ± 40 mPa·s; (303.15 K) 192 ± 20 mPa·s; (313.15 K) 108 ± 11 mPa·s; (323.15 K) 66.8 ± 6.8 mPa·s; (333.15 K) 44.2 ± 4.5 mPa·s. Also, the viscosity is 30.8 ± 3.1 mPa·s (343.15 K), 22.3 ± 2.2 mPa·s (353.15 K), 16.6 ± 1.7 mPa·s (363.15 K) and 12.5 ± 1.3 mPa·s (373.15 K).
For the compound `CCCCn1cc[n+](C)c1.O=S(=O)([O-])C(F)(F)C(F)OC(F)(F)C(F)(F)F` (stereo not drawn), the viscosity worked out at 1021 ± 110 mPa·s (283.15 K); 444 ± 48 mPa·s (293.15 K); 218 ± 23 mPa·s (303.15 K); 119 ± 12 mPa·s (313.15 K); 71.2 ± 7.2 mPa·s (323.15 K); 45.9 ± 4.6 mPa·s (333.15 K). Also, the viscosity reads like this: (343.15 K) 31.6 ± 3.2 mPa·s; (353.15 K) 22.9 ± 2.3 mPa·s; (363.15 K) 17.3 ± 1.7 mPa·s; (373.15 K) 13.5 ± 1.4 mPa·s.
`CCCCn1cc[n+](C)c1.O=S(=O)([O-])C(F)(F)C(F)OC(F)(F)F` (stereo not drawn): the viscosity is 626 ± 68 mPa·s (283.15 K); 298 ± 31 mPa·s (293.15 K); 159 ± 16 mPa·s (303.15 K); 93 ± 9 mPa·s (313.15 K); 59 ± 6 mPa·s (323.15 K); 39.8 ± 4 mPa·s (333.15 K). In addition, the viscosity by setting is: (343.15 K) 28.2 ± 2.8 mPa·s; (353.15 K) 20.7 ± 2.1 mPa·s; (363.15 K) 15.6 ± 1.6 mPa·s; (373.15 K) 11.9 ± 1.2 mPa·s.
For the compound `CCCCCCCCCCCCCC[P+](CCCCCC)(CCCCCC)CCCCCC.O=S(=O)([O-])C(F)(F)C(F)OC(F)(F)C(F)(F)F`, the viscosity (283.15 K) was determined as 1319 ± 150 mPa·s; the viscosity (293.15 K) is listed as 625 ± 68 mPa·s; the viscosity (303.15 K) was determined as 330 ± 35 mPa·s; the viscosity (313.15 K) was 191 ± 20 mPa·s; the viscosity (323.15 K) is on record as 118 ± 12 mPa·s; the viscosity (333.15 K) is given as 77.4 ± 7.8 mPa·s. The viscosity (343.15 K) is 52.9 ± 5.3 mPa·s, the viscosity (353.15 K) stood at 37.2 ± 3.8 mPa·s, the viscosity (363.15 K) came to 26.7 ± 2.7 mPa·s and the viscosity (373.15 K) was 19.3 ± 1.9 mPa·s. For the same compound, the mass density runs as follows: (283.15 K) 1075 ± 2 kg/m3; (298.15 K) 1063 ± 2 kg/m3; (323.15 K) 1044 ± 2 kg/m3; (348.15 K) 1025 ± 2 kg/m3.
